# Key:
# [1] = tested on: P. aeruginosa strain 6077 (O11-cytotoxic); assay: Corneal infection (ocular keratitis) model in mice; assay type: in vivo, Pseudomonas aeruginosa
# [2] = tested on: wild type PAO1, PAO1ΔpslA and PAO1ΔpslA complemented with pslA; assay: OPK assay with PAO1 pslA mutant strains; assay type: cell-based, Pseudomonas aeruginosa; details: FIG. 3F-G
# Experimental: (§1) This example describes the evaluation of prioritized human IgG1 antibodies to promote OPK of P. aeruginosa. […] OPK assays were performed as described in (DiGiandomenico, A., et al., Infect Immun 72, 7012-7021 (2004)), with modifications. Briefly, assays were performed in 96-well plates using 0.025 ml of each OPK component; P. aeruginosa strains; diluted baby rabbit serum; differentiated HL-60 cells; and monoclonal antibody. In some OPK assays, luminescent P. aeruginosa strains, which were constructed as described (Choi, K. H., et al., Nat Methods 2, 443-448 (2005)), were used. Luminescent OPK assays were performed as described above but with determination of relative luciferase units (RLUs) using a Perkin Elmer ENVISION Multilabel plate reader (Perkin Elmer).
# This example describes identification of the target of anti-P. aeruginosa antibodies derived from phenotypic screening. Target analysis was performed to test whether the serotype independent antibodies targeted protein or carbohydrate antigens. […] Isogenic mutants were constructed in genes responsible for 0-antigen, alginate, and LPS core biosynthesis; wbpL (O-antigen-deficient); wbpL/algD (O-antigen and alginate deficient); rmlC (O-antigen-deficient and truncated outer core); and galU (O-antigen-deficient and truncated inner core). […]
# [3] = tested on: P. aeruginosa strains 6077, 6206, 6294; assay: Thermal injury model in mice, survival; assay type: in vivo, Pseudomonas aeruginosa; details: 6077 2×10^5 CFU, FIG. 8E
# Experimental: (§2) Antibodies or PBS were administered 24 hours before infection in each model. P. aeruginosa acute pneumonia, keratitis, and thermal injury infection models were performed as described (DiGiandomenico, A., et al., Proc Natl Acad Sci USA 104, 4624-4629 (2007)), with modifications. In the acute pneumonia model, BALB/c mice (The Jackson Laboratory) were infected with P. aeruginosa strains suspended in a 0.05 ml inoculum. In the thermal injury model, CF-1 mice (Charles River) received a 10% total body surface area burn with a metal brand heated to 92° C. for 10 seconds. Animals were infected subcutaneously with P. aeruginosa strain 6077 at the indicated dose. For organ burden experiments, acute pneumonia was induced in mice followed by harvesting of lungs, spleens, and kidneys 24 hours post-infection for determination of CFU.
# Survival effect of the Bs4-GLO bispecific antibody was evaluated in a P. aeruginosa thermal injury model against different P. aeruginosa strains. […] Animals were treated with Bs4-GLO or […] to induction of thermal injury and subcutaneous infection with P. aeruginosa strain (A) 6077 (O11-ExoU^+) or (B) 6206 (O11-ExoU^+) or (C) 6294 (06) directly under the wound.
# (A) Animals were treated with Bs4-GLO or R347 (A) 4h hours or (B) 12 hours after induction of thermal injury and subcutaneous infection with P. aeruginosa strain 6077 (O11-ExoU^+) directly under the wound.
# [4] = tested on: P. aeruginosa strain 6077 (O11-cytotoxic); assay: Corneal infection (ocular keratitis) model in mice; assay type: in vivo, Pseudomonas aeruginosa; details: C3H/HeN mice; IP, 16 hours prior to infection with 6077 1×10^6 CFU; graded at 48 h; FIG. 8H
# Experimental: as §2
# Cam-003 and WapR-004 efficacy was next evaluated in a P. aeruginosa corneal infection model which emphasizes the pathogens ability to attach and colonize damaged tissue. […] FIG. 8 (H): The activity of anti-Psl and anti-PcrV monoclonal antibodies V2L2 was tested in a P. aeruginosa mouse ocular keratitis model. […]
# [5] = tested on: luminescent P. aeruginosa serogroup 05 strain (PAO1.lux); assay: Opsonophagocytic killing (OPK) assay, PAO1.lux; assay type: cell-based, Pseudomonas aeruginosa
# Experimental: as §1
substance,measurement,setting,value
"Cam-003: anti-Psl human IgG1 monoclonal antibody; VH SEQ ID NO:1, VL SEQ ID NO:2","difference vs control IgG1 (pathology scores / viable CFU), Mann-Whitney U-test P","[1]; 15 mg/kg, FIG. 8C",0.0003
same,"difference vs control IgG1 (pathology scores / viable CFU), Mann-Whitney U-test P","[1]; 15 mg/kg, FIG. 8D",0.0015
same,"difference vs control IgG1 (pathology scores / viable CFU), Mann-Whitney U-test P","[1]; 45 mg/kg, FIG. 8A",0.0001
same,corneal pathology and bacterial counts vs negative control-treated animals,"[1]; 6077, antibody 24 hours prior to infection, FIG. 8A-D, F-G",significantly less pathology and reduced bacterial counts in total eye homogenates
same,opsonophagocytic killing of Psl-producing vs Psl-deficient strains,[2],only mediates killing of strains capable of producing Psl
same,"survival R347 vs. Cam-003, log-rank P",[3]; 5 mg/kg,0.0017
same,"survival R347 vs. Cam-003, log-rank P",[3]; 15 mg/kg,0.0094
same,protection compared to the antibody-treated control,[3]; CF-1 mice,significant protection at 15 and 5 mg/kg
same,corneal pathology and CFU in total eye homogenates vs R347,[4],significantly less pathology and reduced bacterial colony forming units (CFU) in total eye homogenates
same,OPK EC50,"[5]; FIG. 9A, unit inferred",0.06 µg/mL
same,OPK activity (killing of PAO1.lux),"[5]; purified human IgG1 mAbs from phage panning, FIG. 2A",superior OPK activity
